According to patent US4337199A, “Antibiotic β-lactam compounds, production thereof, and their use as antimicrobial agent” (Sanraku-Ocean Co., Ltd., priority 1978, dated 1982):
In brackets after ≈: the same amount, converted by molar mass.

What was measured:
Test in all cases: minimum inhibitory concentration, agar dilution assay
Type in all cases: cell-based
Alcaligenes faecalis A 1 = conditions: A1, agar dilution, 35° C., 20 hours, read-out: minimum inhibitory concentration
Method: (§1) The antibiotic activities shown in Tables I-1 to I-8 above were determined in the following manner.
(§2) The minimum inhibitory concentrations of the compounds of formula (I-a-1) or (I-b-1) in Tables I-1 to I-7 and the known compounds in Table I-8 on the various microorganisms shown in the above tables were measured by an agar dilution assay method using a brain heart infusion agar medium "Difco" (a product of Difco Laboratories Inc.)
(§3) A sample of the test compound was dissolved in sterile distilled water and diluted to prepare a two-fold dilution series of the compound solution. In a petri plate of 9 cm diameter, 1 ml of the compound solution was added to 9 ml of molten sterile heart infusion agar medium (Difco Laboratories Inc.) at about 60° C. to prepare the compound-containing agar plate. An overnight culture of each test organism indicated in the above table which was prepared by stationary cultivation in Trypto-Soy broth (Eiken Chemi. Co., Ltd.) at 35° C. for 18 to 20 hours, was diluted with the Trypto-Soy broth to give approximately 10^8 cells/ml and the diluted inoculum was inoculated onto the compound-containing agar plates. After cultivating the plates at 35° C. for 20 hours, the growth of the organism was observed. The minimum concentration of the compound at which no growth of the microorganism was noted was determined, and defined as the minimum inhibitory concentration of the test compound.

[1] = test system: Bacillus subtilis ATCC 6633; conditions: ATCC6633, agar dilution, 35° C., 20 hours, read-out: minimum inhibitory concentration
Method: as §1, §2, §3

[2] = test system: Citrobacter freundii GN 346; conditions: GN346, agar dilution, 35° C., 20 hours, read-out: minimum inhibitory concentration
Method: as §1, §2, §3

[3] = test system: Comamonas terrigena B-996; conditions: B996, agar dilution, 35° C., 20 hours, read-out: minimum inhibitory concentration
Method: as §1, §2, §3

[4] = test system: Enterobacter aerogenes E19; conditions: Klebsiella aerogenes, E19; agar dilution, 35° C., 20 hours; read-out: minimum inhibitory concentration
Method: as §1, §2, §3

Enterobacter cloacae 45 = conditions: Enterobacter cloacae, 45; agar dilution, 35° C., 20 hours; read-out: minimum inhibitory concentration
Method: as §1, §2, §3

Enterobacter sp. E8 = conditions: SP.E8, agar dilution, 35° C., 20 hours, read-out: minimum inhibitory concentration
Method: as §1, §2, §3

Escherichia coli K-12 = conditions: K12, agar dilution, 35° C., 20 hours, read-out: minimum inhibitory concentration
Method: as §1, §2, §3

Escherichia coli RGN 823 = conditions: RGN823, agar dilution, 35° C., 20 hours, read-out: minimum inhibitory concentration
Method: as §1, §2, §3

[5] = test system: Klebsiella pneumoniae K-13; conditions: K13, agar dilution, 35° C., 20 hours, read-out: minimum inhibitory concentration
Method: as §1, §2, §3

Proteus mirabilis P6 = conditions: P6, agar dilution, 35° C., 20 hours, read-out: minimum inhibitory concentration
Method: as §1, §2, §3

Proteus rettgeri P7 = conditions: Providencia rettgeri, P7; agar dilution, 35° C., 20 hours; read-out: minimum inhibitory concentration
Method: as §1, §2, §3

Proteus sp. P22 = conditions: agar dilution, 35° C., 20 hours; read-out: minimum inhibitory concentration
Method: as §1, §2, §3

Proteus vulgaris GN76 = conditions: GN76, agar dilution, 35° C., 20 hours, read-out: minimum inhibitory concentration
Method: as §1, §2, §3

Providencia sp. P8 = conditions: SP.P8, agar dilution, 35° C., 20 hours, read-out: minimum inhibitory concentration
Method: as §1, §2, §3

[6] = test system: Pseudomonas aeruginosa IFO3445; conditions: IFO3445, agar dilution, 35° C., 20 hours, read-out: minimum inhibitory concentration
Method: as §1, §2, §3

[7] = test system: Pseudomonas aeruginosa NCTC10490; conditions: NCTC10490, agar dilution, 35° C., 20 hours, read-out: minimum inhibitory concentration
Method: as §1, §2, §3

Sarcina lutea = conditions: Micrococcus luteus; agar dilution, 35° C., 20 hours; read-out: minimum inhibitory concentration
Method: as §1, §2, §3

Serratia marcescens S18 = conditions: S18, agar dilution, 35° C., 20 hours, read-out: minimum inhibitory concentration
Method: as §1, §2, §3

Serratia marcescens T55 = conditions: T55, agar dilution, 35° C., 20 hours, read-out: minimum inhibitory concentration
Method: as §1, §2, §3

[8] = test system: Staphylococcus aureus FDA 209P; conditions: FDA209P, agar dilution, 35° C., 20 hours, read-out: minimum inhibitory concentration
Method: as §1, §2, §3

[9] = test system: Staphylococcus aureus Russell; conditions: agar dilution, 35° C., 20 hours, read-out: minimum inhibitory concentration
Method: as §1, §2, §3

[10] = test system: Staphylococcus aureus Smith; conditions: agar dilution, 35° C., 20 hours, read-out: minimum inhibitory concentration
Method: as §1, §2, §3

[11] = test system: Staphylococcus epidermidis; conditions: agar dilution, 35° C., 20 hours, read-out: minimum inhibitory concentration
Method: as §1, §2, §3

SMILES	MIC (Alcaligenes faecalis A 1)	MIC [1]	MIC [2]	MIC [3]	MIC [4]	MIC (Enterobacter cloacae 45)	MIC (Enterobacter sp. E8)	MIC (Escherichia coli K-12)	MIC (Escherichia coli RGN 823)	MIC [5]	MIC (Proteus mirabilis P6)	MIC (Proteus rettgeri P7)	MIC (Proteus sp. P22)	MIC (Proteus vulgaris GN76)	MIC (Providencia sp. P8)	MIC [6]	MIC [7]	MIC (Sarcina lutea)	MIC (Serratia marcescens S18)	MIC (Serratia marcescens T55)	further results
CC(O)[C@H]1C(=O)N2C(C(=O)O)=C(Sc3ncccn3)C[C@H]12 (stereo partly drawn) [Example 63, 5,6-trans-3-(2-Pyrimidinylthio)-6-(1-hydroxyethyl)-7-oxo-1-azabicyclo[3.2.0]hept-2-ene-2-carboxylic acid]	1.56 µg/mL (≈ 5.08 µM)	0.39 µg/mL (≈ 1.27 µM)	100 µg/mL (≈ 325 µM)	0.05 µg/mL (≈ 0.163 µM)	100 µg/mL (≈ 325 µM)	50 µg/mL (≈ 163 µM)	6.25 µg/mL (≈ 20.3 µM)	1.56 µg/mL (≈ 5.08 µM)	3.13 µg/mL (≈ 10.2 µM)	25 µg/mL (≈ 81.3 µM)	12.5 µg/mL (≈ 40.7 µM)	12.5 µg/mL (≈ 40.7 µM)	12.5 µg/mL (≈ 40.7 µM)	12.5 µg/mL (≈ 40.7 µM)	0.78 µg/mL (≈ 2.54 µM)	12.5 µg/mL (≈ 40.7 µM)	12.5 µg/mL (≈ 40.7 µM)	0.2 µg/mL (≈ 0.651 µM)	50 µg/mL (≈ 163 µM)	100 µg/mL (≈ 325 µM)	MIC [8]: 0.2 µg/mL (≈ 0.651 µM); MIC [9]: 0.39 µg/mL (≈ 1.27 µM); MIC [10]: 0.39 µg/mL (≈ 1.27 µM); MIC [11]: 0.39 µg/mL (≈ 1.27 µM)
CCC1C(=O)N2C(C(=O)O)=C(SC3CCCCC3)CC12 (stereo not drawn) [Example 67, Sodium 3-cyclohexylthio-6-ethyl-7-oxo-1-azabicyclo[3.2.0.]hept-2-ene-2-carboxylate]	5.6 µg/mL	0.09 µg/mL	> 180 µg/mL	< 0.01 µg/mL	> 180 µg/mL	> 180 µg/mL	> 180 µg/mL	180 µg/mL	180 µg/mL	> 180 µg/mL	45 µg/mL	180 µg/mL	90 µg/mL	180 µg/mL	180 µg/mL	180 µg/mL	22.5 µg/mL	< 0.01 µg/mL	> 180 µg/mL	> 180 µg/mL	MIC [8]: < 0.01 µg/mL; MIC [9]: < 0.01 µg/mL; MIC [10]: 0.04 µg/mL; MIC [11]: 0.04 µg/mL
CC(=O)NCCSC1=C(C(=O)O)N2C(=O)C(C(C)O)C2C1 (stereo not drawn) [PS-3B, 3-(2-acetamidoethylthio)-6-(1-hydroxyethyl)-7-oxo-1-azabicyclo[3.2.0]hept-2-ene-2-carboxylic acid, reference compound]	0.07 µg/mL (≈ 0.223 µM)	0.004 µg/mL (≈ 0.0127 µM)	0.53 µg/mL (≈ 1.69 µM)	0.001 µg/mL (≈ 0.00318 µM)	0.27 µg/mL (≈ 0.859 µM)	1.06 µg/mL (≈ 3.37 µM)	0.07 µg/mL (≈ 0.223 µM)	0.07 µg/mL (≈ 0.223 µM)	1.06 µg/mL (≈ 3.37 µM)	8.5 µg/mL (≈ 27 µM)	0.53 µg/mL (≈ 1.69 µM)	17 µg/mL (≈ 54.1 µM)	17 µg/mL (≈ 54.1 µM)	8.5 µg/mL (≈ 27 µM)	0.27 µg/mL (≈ 0.859 µM)	17 µg/mL (≈ 54.1 µM)	34 µg/mL (≈ 108 µM)	0.004 µg/mL (≈ 0.0127 µM)	2.13 µg/mL (≈ 6.78 µM)	2.13 µg/mL (≈ 6.78 µM)	MIC [8]: 0.07 µg/mL (≈ 0.223 µM); MIC [9]: 0.13 µg/mL (≈ 0.414 µM); MIC [10]: 0.13 µg/mL (≈ 0.414 µM); MIC [11]: 0.07 µg/mL (≈ 0.223 µM)
CC(C)C1C(=O)N2C(C(=O)O)=C(SCCO)CC12 (stereo not drawn) [R1 --CH3, R21 --CH2 CH2 OH]	1.56 µg/mL (≈ 5.75 µM)	0.39 µg/mL (≈ 1.44 µM)	12.5 µg/mL (≈ 46.1 µM)	0.05 µg/mL (≈ 0.184 µM)	12.5 µg/mL (≈ 46.1 µM)	25 µg/mL (≈ 92.1 µM)	12.5 µg/mL (≈ 46.1 µM)	12.5 µg/mL (≈ 46.1 µM)	12.5 µg/mL (≈ 46.1 µM)	12.5 µg/mL (≈ 46.1 µM)	25 µg/mL (≈ 92.1 µM)	12.5 µg/mL (≈ 46.1 µM)	50 µg/mL (≈ 184 µM)	25 µg/mL (≈ 92.1 µM)	6.25 µg/mL (≈ 23 µM)	12.5 µg/mL (≈ 46.1 µM)	25 µg/mL (≈ 92.1 µM)	0.39 µg/mL (≈ 1.44 µM)	12.5 µg/mL (≈ 46.1 µM)	50 µg/mL (≈ 184 µM)	MIC [8]: 0.2 µg/mL (≈ 0.737 µM); MIC [9]: 0.39 µg/mL (≈ 1.44 µM); MIC [10]: 0.39 µg/mL (≈ 1.44 µM); MIC [11]: 0.39 µg/mL (≈ 1.44 µM)
CC(O)C1C(=O)N2C(C(=O)O)=C(SCCO)CC12 (stereo not drawn) [R1 --OH**, R21 --CH2 CH2 OH]	0.39 µg/mL (≈ 1.43 µM)	0.013 µg/mL (≈ 0.0476 µM)	0.78 µg/mL (≈ 2.85 µM)	0.013 µg/mL (≈ 0.0476 µM)	0.39 µg/mL (≈ 1.43 µM)	1.56 µg/mL (≈ 5.71 µM)	0.2 µg/mL (≈ 0.732 µM)	0.2 µg/mL (≈ 0.732 µM)	6.25 µg/mL (≈ 22.9 µM)	25 µg/mL (≈ 91.5 µM)	3.13 µg/mL (≈ 11.5 µM)	6.25 µg/mL (≈ 22.9 µM)	100 µg/mL (≈ 366 µM)	25 µg/mL (≈ 91.5 µM)	0.78 µg/mL (≈ 2.85 µM)	25 µg/mL (≈ 91.5 µM)	25 µg/mL (≈ 91.5 µM)	0.013 µg/mL (≈ 0.0476 µM)	12.5 µg/mL (≈ 45.7 µM)	12.5 µg/mL (≈ 45.7 µM)	MIC [8]: 0.013 µg/mL (≈ 0.0476 µM); MIC [9]: 0.2 µg/mL (≈ 0.732 µM); MIC [10]: 0.1 µg/mL (≈ 0.366 µM); MIC [11]: 0.2 µg/mL (≈ 0.732 µM)
